Reference: patent US10597388B2, “Pyridazinone herbicides” (FMC CORPORATION, priority 2014, dated 2020)

Tests used:
Format in all cases: in vivo
[1] = test system: foxtail, giant (giant foxtail, Setaria faberii); assay: Test A greenhouse herbicide test, pre- and postemergence
In short: (§1)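 Visual injury ratings, 0 (no effect) to 100 (complete control), versus untreated plants after roughly 10 d in a greenhouse. Compounds, formulated in a surfactant-containing non-phytotoxic solvent, were sprayed on loam–sand soil after sowing (pre) or on one- to two-leaf plants 2–10 cm tall (post).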

[2] = test system: wheat (Triticum aestivum); assay: as above; settings: Postemergence; for Wheat plant response rating: 0 to 100 scale, 0 is no effect, 100 is complete control
In short: as §1

[3] = test system: ryegrass, Italian (Italian ryegrass, Lolium multiflorum); assay: as above
In short: as §1

corn (Zea mays) = assay: as above; settings: Postemergence; for Corn plant response rating: 0 to 100 scale, 0 is no effect, 100 is complete control
In short: as §1

[4] = test system: ragweed (common ragweed, Ambrosia elatior); assay: as above
In short: as §1

[5] = test system: pigweed (Amaranthus retroflexus); assay: as above
In short: as §1

[6] = test system: ducksalad (Heteranthera limosa); assay: Test B flooded paddy test; settings: 250 g ai/ha, Flood; visual rating on scale of 0 to 100 where 0 is no effect and 100 is complete control; 13 to 15 d after treatment
In short: (§2)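 Ratings use a 0-100 visual scale, where 100 is complete control, and compare treated plants with controls after 13 to 15 d of greenhouse growth. Compound went straight into paddy water kept 3 cm over the soil surface, applied to seedlings at the 2-leaf stage.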

[7] = test system: sedge, umbrella (small-flower umbrella sedge, Cyperus difformis); assay: Test B flooded paddy test; settings: 250 g ai/ha, Flood; visual rating on scale of 0 to 100 where 0 is no effect and 100 is complete control; 13 to 15 d after treatment
In short: as §2

rice (Oryza sativa) = assay: Test B flooded paddy test; settings: 250 g ai/ha, Flood; visual rating on scale of 0 to 100 where 0 is no effect and 100 is complete control; 13 to 15 d after treatment
In short: as §2

[8] = test system: barnyardgrass (Echinochloa crus-galli); assay: Test B flooded paddy test; settings: 250 g ai/ha, Flood; visual rating on scale of 0 to 100 where 0 is no effect and 100 is complete control; 13 to 15 d after treatment
In short: as §2

[9] = Postemergence, 125 g ai/ha, 0 to 100 scale where 0 is no effect and 100 is complete control
[10] = Postemergence, 500 g ai/ha, visual rating after approx. 10 d, 0 to 100 scale (0 no effect, 100 complete control)
[11] = Preemergence, 125 g ai/ha, 0 to 100 scale where 0 is no effect and 100 is complete control
[12] = Preemergence, 500 g ai/ha, 0 to 100 scale where 0 is no effect and 100 is complete control
[13] = 125 g ai/ha, 0 to 100 scale where 0 is no effect and 100 is complete control
[14] = 500 g ai/ha, visual rating after approx. 10 d, 0 to 100 scale (0 no effect, 100 complete control)
[15] = Postemergence, 125 g ai/ha, visual rating after approx. 10 d, 0 to 100 scale (0 no effect, 100 complete control)
[16] = Postemergence, 500 g ai/ha, 0 to 100 scale, 0 is no effect, 100 is complete control
[17] = Preemergence, 500 g ai/ha, 0 to 100 scale, 0 no effect, 100 complete control
[18] = 125 g ai/ha, visual rating after approx. 10 d, 0 to 100 scale (0 no effect, 100 complete control)

Cc1ccc2ccc(Cl)cc2c1-c1c(O)c(C)nn(C)c1=O [Compound 144]
Plant response rating, Foxtail, Giant [1, 9]: 100
Plant response rating, Foxtail, Giant [1, 10]: 100
Foxtail, Giant plant response rating [1, 11]: 100
Plant response rating, Foxtail, Giant [1, 12]: 100
Plant response rating, Wheat [2, 13]: 90
Plant response rating, Wheat [2, 14]: 100
Plant response rating, Ryegrass, Italian [3, 9]: 100
Plant response rating, Ryegrass, Italian [3, 10]: 100
Plant response rating, Ryegrass, Italian [3, 12]: 100
Plant response rating, Corn (corn (Zea mays); [13]): 60
Plant response rating, Corn (corn (Zea mays); [14]): 90
Plant response rating, Ragweed [4, 9]: 100
Plant response rating, Ragweed [4, 10]: 100
Plant response rating, Ragweed [4, 12]: 100
Plant response rating, Pigweed [5, 9]: 100
Plant response rating, Pigweed [5, 10]: 100
Pigweed plant response rating [5, 11]: 100
Plant response rating, Pigweed [5, 12]: 100
Plant response rating, Ducksalad [6]: 40
Plant response rating, Sedge, Umbrella [7]: 0
Plant response rating, Rice (rice (Oryza sativa)): 30
Plant response rating, Barnyardgrass [8]: 30

Cc1ccc2ccccc2c1-c1c(O)c(Br)nn(C)c1=O [Compound 23]
Plant response rating, Foxtail, Giant [1, 15]: 90
Foxtail, Giant plant response rating [1, 16]: 90
Foxtail, Giant plant response rating [1, 11]: 90
Plant response rating, Foxtail, Giant [1, 17]: 90
Plant response rating, Wheat [2, 18]: 50
Wheat plant response rating ([2]; 500 g ai/ha): 80
Plant response rating, Ryegrass, Italian [3, 15]: 100
Ryegrass, Italian plant response rating [3, 16]: 100
Ryegrass, Italian plant response rating [3, 11]: 80
Plant response rating, Ryegrass, Italian [3, 17]: 90
Plant response rating, Corn (corn (Zea mays); [18]): 40
Corn plant response rating (corn (Zea mays); 500 g ai/ha): 50
Plant response rating, Ragweed [4, 15]: 90
Ragweed plant response rating [4, 16]: 100
Ragweed plant response rating [4, 11]: 90
Plant response rating, Ragweed [4, 17]: 90
Plant response rating, Pigweed [5, 15]: 100
Pigweed plant response rating [5, 16]: 100
Pigweed plant response rating [5, 11]: 100
Plant response rating, Pigweed [5, 17]: 100
Plant response rating, Ducksalad [6]: 75
Plant response rating, Sedge, Umbrella [7]: 95
Plant response rating, Rice (rice (Oryza sativa)): 0
Plant response rating, Barnyardgrass [8]: 0

CCC(=O)Oc1c(OC)nn(C)c(=O)c1-c1c(C)sc2ccc(Cl)cc12 [Compound 131]
Plant response rating, Foxtail, Giant [1, 9]: 50
Plant response rating, Foxtail, Giant [1, 10]: 80
Foxtail, Giant plant response rating [1, 11]: 80
Plant response rating, Foxtail, Giant [1, 12]: 90
Plant response rating, Wheat [2, 13]: 0
Plant response rating, Wheat [2, 14]: 20
Plant response rating, Ryegrass, Italian [3, 9]: 90
Plant response rating, Ryegrass, Italian [3, 10]: 90
Ryegrass, Italian plant response rating [3, 11]: 90
Plant response rating, Ryegrass, Italian [3, 12]: 90
Plant response rating, Corn (corn (Zea mays); [13]): 0
Plant response rating, Corn (corn (Zea mays); [14]): 10
Plant response rating, Ragweed [4, 9]: 100
Plant response rating, Ragweed [4, 10]: 90
Ragweed plant response rating [4, 11]: 40
Plant response rating, Ragweed [4, 12]: 60
Plant response rating, Pigweed [5, 9]: 60
Plant response rating, Pigweed [5, 10]: 90
Pigweed plant response rating [5, 11]: 80
Plant response rating, Pigweed [5, 12]: 100
Plant response rating, Ducksalad [6]: 0
Plant response rating, Sedge, Umbrella [7]: 0
Plant response rating, Rice (rice (Oryza sativa)): 0
Plant response rating, Barnyardgrass [8]: 0

Cc1cc2ccccc2c(-c2c(O)c(C)nn(C)c2=O)c1C [Compound 34]
Plant response rating, Foxtail, Giant [1, 15]: 30
Foxtail, Giant plant response rating [1, 16]: 90
Foxtail, Giant plant response rating [1, 11]: 40
Plant response rating, Foxtail, Giant [1, 17]: 90
Plant response rating, Wheat [2, 13]: 20
Wheat plant response rating ([2]; 500 g ai/ha): 40
Plant response rating, Ryegrass, Italian [3, 9]: 100
Ryegrass, Italian plant response rating [3, 16]: 100
Ryegrass, Italian plant response rating [3, 11]: 100
Plant response rating, Ryegrass, Italian [3, 17]: 100
Plant response rating, Corn (corn (Zea mays); [18]): 0
Corn plant response rating (corn (Zea mays); 500 g ai/ha): 0
Plant response rating, Ragweed [4, 15]: 90
Ragweed plant response rating [4, 16]: 100
Ragweed plant response rating [4, 11]: 80
Plant response rating, Ragweed [4, 17]: 90
Plant response rating, Pigweed [5, 15]: 90
Pigweed plant response rating [5, 16]: 90
Pigweed plant response rating [5, 11]: 90
Plant response rating, Pigweed [5, 17]: 100
Plant response rating, Ducksalad [6]: 0
Plant response rating, Sedge, Umbrella [7]: 0
Plant response rating, Rice (rice (Oryza sativa)): 0
Plant response rating, Barnyardgrass [8]: 0

COC(=O)Oc1c(C)nn(C)c(=O)c1-c1ccc(Br)c2ccccc12 [Compound 145]
Plant response rating, Foxtail, Giant [1, 9]: 20
Plant response rating, Foxtail, Giant [1, 10]: 80
Foxtail, Giant plant response rating [1, 11]: 30
Plant response rating, Foxtail, Giant [1, 12]: 90
Plant response rating, Wheat [2, 13]: 20
Plant response rating, Wheat [2, 14]: 30
Plant response rating, Ryegrass, Italian [3, 9]: 100
Plant response rating, Ryegrass, Italian [3, 10]: 100
Plant response rating, Ryegrass, Italian [3, 12]: 100
Plant response rating, Corn (corn (Zea mays); [13]): 20
Plant response rating, Corn (corn (Zea mays); [14]): 60
Plant response rating, Ragweed [4, 9]: 100
Plant response rating, Ragweed [4, 10]: 100
Plant response rating, Ragweed [4, 12]: 100
Plant response rating, Pigweed [5, 9]: 100
Plant response rating, Pigweed [5, 10]: 100
Pigweed plant response rating [5, 11]: 90
Plant response rating, Pigweed [5, 12]: 100
Plant response rating, Ducksalad [6]: 0
Plant response rating, Sedge, Umbrella [7]: 0
Plant response rating, Rice (rice (Oryza sativa)): 0
Plant response rating, Barnyardgrass [8]: 0

Cc1cc(C)c2ccccc2c1-c1c(O)c(C)nn(C)c1=O [Compound 21]
Plant response rating, Foxtail, Giant [1, 15]: 100
Foxtail, Giant plant response rating [1, 16]: 100
Foxtail, Giant plant response rating [1, 11]: 90
Plant response rating, Foxtail, Giant [1, 17]: 100
Plant response rating, Wheat [2, 18]: 10
Wheat plant response rating ([2]; 500 g ai/ha): 60
Plant response rating, Ryegrass, Italian [3, 15]: 100
Ryegrass, Italian plant response rating [3, 16]: 100
Ryegrass, Italian plant response rating [3, 11]: 100
Plant response rating, Ryegrass, Italian [3, 17]: 100
Plant response rating, Corn (corn (Zea mays); [18]): 50
Corn plant response rating (corn (Zea mays); 500 g ai/ha): 60
Plant response rating, Ragweed [4, 15]: 100
Ragweed plant response rating [4, 16]: 100
Ragweed plant response rating [4, 11]: 100
Plant response rating, Ragweed [4, 17]: 100
Plant response rating, Pigweed [5, 15]: 100
Pigweed plant response rating [5, 16]: 100
Pigweed plant response rating [5, 11]: 100
Plant response rating, Pigweed [5, 17]: 100
Plant response rating, Ducksalad [6]: 0
Plant response rating, Sedge, Umbrella [7]: 65
Plant response rating, Rice (rice (Oryza sativa)): 55
Plant response rating, Barnyardgrass [8]: 70
